Source: patent publication US20030032674A1, “Use of unsaturated fatty acids to treat severe inflammatory diseases” (priority 2001, published 2003)

Assays:
IL-1α expression = assay: IL-1α immunoblot in RAW 264.7 cells; assay type: cell-based, murine; conditions: lauric acid 1, 10, 50, 100 μM with BSA, 11 h
Procedure: Cell culture—RAW 264.7 cells (a murine macrophage-like cell line, ATCC TIB-71), 293T cells (a human embryonic kidney cell line, provided by Sam Lee, Beth Israel Hospital. Boston, Mass.), and HT-29 cells (a human colon adenocarcinoma cell line, ATCC HTB-38) were cultured in Dulbecco's modified Eagle's medium (DMEM) containing 10% (v/v) heat-inactivated fetal bovine serum (FBS, Intergen) and 100 units/ml Penicillin and […] Streptomycin (GIBCO-BRL) at 37° C. in a 5% CO2/air environment. Cells (2×10^6) were plated in 60-mm dishes and cultured for an additional 18 hours to allow the number of cells to approximately double. Cells were maintained in serum-poor (0.25% FBS) medium for another 18 hours prior to the treatment with indicated reagents.
Preparation of fatty acids-albumin complexes—All fatty acids were solubilized in ethanol, and then combined with fatty acid-free and low-endotoxin BSA at a molar ratio of 10:1 (fatty acid: albumin) in serum-poor medium (0.25% FBS). […]
After 11 h, cell lysates were analyzed by COX-2, iNOS, IL-1α, or GAPDH immunoblot using a Western blot analysis.
RAW 264.7 cells were pretested with various concentrations (5, 10, 20, and 50 μM) of docosahexaenoic acid (C22:6n-3) for 3 hours, and then stimulated with LPS (100 ng/ml) for 8 hours and analyzed by COX-2, iNOS, IL-1 a or GAPDH immunoblot.

TLR2 = target: T1, TLR2 (Homo sapiens, UniProt O60603); assay: NFκB reporter in TLR2-transfected 293T cells; assay type: cell-based; conditions: PamCAG 100 ng/ml
T1 construct: expressed in transfected cells; host or cells: 293T (stated not to express TLR2)
Excerpt: Plasmids and DNA Constructs—All plasmids and constructs were obtained or made as reported in either S. H. Rhee and D. Hwang, “Murine TOLL-like receptor 4 confers lipopolysaccaride responsiveness as determined by activation of NFκB and expression of the inducible cyclooxygenase,” Journal of Biological Chemistry, vol. 275, pp. 34035-34040 (2000); and J. Y. Lee et al., “Saturated fatty acids, but not unsaturated fatty acids, induce the expression of cyclooxygenase-2 mediated through TOLL-like receptor 4,” Journal of Biological Chemistry, vol. 276, pp. 16683-16689 (2001). Briefly, the luciferase reporter plasmids (pGL2) containing the promoter region of the murine COX-2 gene (−3201/+93 or −1017/+93) were provided by David Dewitt (Michigan State University, East Lansing, Mich.). To prepare the wild-type COX-2 promoter fragment, polymerase chain reaction (PCR) was performed with the primers named Kpn-COX2-For and Hind-COX2-Rev using the murine COX-2 (−1017/+93) luciferase reporter plasmid as a template. To prepare the mutant COX-2 promoter fragment containing mutated NFκB site, Kpn-COX2-Fmut and Hind-COX2-Rev were used as primers. […]
Acylation by saturated fatty acids of bacterial lipopeptides is also required for the activation of TLR2. […] After 18 hr, luciferase activities were determined. […]

T1 sequence (O60603 21-784, species assumed): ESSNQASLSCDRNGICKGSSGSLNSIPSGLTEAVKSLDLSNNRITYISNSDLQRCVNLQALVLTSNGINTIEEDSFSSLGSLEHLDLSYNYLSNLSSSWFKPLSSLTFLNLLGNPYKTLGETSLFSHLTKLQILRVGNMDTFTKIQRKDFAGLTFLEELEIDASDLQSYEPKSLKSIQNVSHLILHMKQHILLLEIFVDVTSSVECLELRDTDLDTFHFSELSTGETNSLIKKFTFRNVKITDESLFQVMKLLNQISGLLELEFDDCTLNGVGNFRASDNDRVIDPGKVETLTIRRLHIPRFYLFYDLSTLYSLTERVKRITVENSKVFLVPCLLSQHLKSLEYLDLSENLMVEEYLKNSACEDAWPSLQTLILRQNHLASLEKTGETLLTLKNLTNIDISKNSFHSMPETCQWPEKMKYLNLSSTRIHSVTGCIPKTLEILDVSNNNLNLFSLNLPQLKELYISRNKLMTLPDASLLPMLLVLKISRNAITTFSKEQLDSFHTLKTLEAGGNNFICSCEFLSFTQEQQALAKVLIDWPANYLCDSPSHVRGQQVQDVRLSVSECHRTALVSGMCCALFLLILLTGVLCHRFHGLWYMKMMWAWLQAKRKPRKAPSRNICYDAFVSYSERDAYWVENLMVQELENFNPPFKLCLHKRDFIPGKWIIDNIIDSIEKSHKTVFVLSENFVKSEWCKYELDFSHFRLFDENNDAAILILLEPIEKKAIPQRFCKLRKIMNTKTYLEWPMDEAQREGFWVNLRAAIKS

For CCCCCCCCCCCC(=O)O [lauric acid], the “IL-1α expression induced by fatty acid (immunoblot)” value (IL-1α expression) was “induced” and the “effect on NFκB activation induced by PamCAG” value (TLR2) was “potentiated”.
